In PubChem BioAssay (NCI):
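Briefly, cells in 96-well plates were exposed to five compound concentrations for 48 h, and endpoints were estimated by linear interpolation. TGI denotes the concentration required for complete inhibition of growth.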

Legend:
Assay in all cases: growth of human tumour cells (NCI), 48 h
[1] = system: 786-0 renal
[2] = system: MOLT-4 leukemia
[3] = system: HCC-2998 colon
[4] = system: OVCAR-5 ovarian
[5] = system: OVCAR-4 ovarian
[6] = system: IGROV1 ovarian
[7] = system: K-562 leukemia
[8] = system: PC-3 prostate
[9] = system: RPMI-8226 leukemia
[10] = system: SK-MEL-28 melanoma
[11] = system: SN12C renal
[12] = system: COLO 205 colon
[13] = system: HCT-15 colon
[14] = system: A498 renal
[15] = system: MCF7 breast
[16] = system: SF-268 CNS
[17] = system: SF-539 CNS
[18] = system: SF-295 CNS
[19] = system: SK-OV-3 ovarian
[20] = system: MDA-MB-231 breast
[21] = system: MDA-N
[22] = system: DU-145 prostate
[23] = system: BT-549 breast
[24] = system: NCI/ADR-RES ovarian
[25] = system: HCT-116 colon
[26] = system: SNB-19 CNS
[27] = system: TK-10 renal
[28] = system: HOP-92 NSCLC
[29] = system: HS 578T breast
[30] = system: U251 CNS
[31] = system: SNB-75 CNS
[32] = system: OVCAR-3 ovarian
[33] = system: UACC-257 melanoma
[34] = system: EKVX NSCLC
[35] = system: OVCAR-8 ovarian
[36] = system: SW-620 colon
[37] = system: ACHN renal
[38] = system: NCI-H23 lung
[39] = system: NCI-H460 lung
[40] = system: A549 NSCLC
[41] = system: HT29 colon
[42] = system: LOX IMVI melanoma
[43] = system: SK-MEL-5 melanoma
[44] = system: NCI-H226 lung
[45] = system: UO-31 renal
[46] = system: CAKI-1 renal
[47] = system: SR leukemia
[48] = system: MDA-MB-435
[49] = system: UACC-62 melanoma
[50] = system: HOP-62 NSCLC
[51] = system: RXF 393 renal
[52] = system: SK-MEL-2 melanoma
[53] = system: CCRF-CEM leukemia

Measured: TGI

CC(=O)NCCc1c(-c2[nH]c3ccccc3c2CCNC(C)=O)[nH]c2ccccc12
> 100 µM: all assays above
